Patent US10765629B2 (Allergan, Inc., priority 2017, dated 2020)

Experiment: Stability study at 40° C./75% RH (appearance; potency by HPLC)
Type: physicochemical
Procedure: All the vials were sealed with HPLC vial cap. The Time 0 samples were in −20° C. freezer and all other samples in 40° C./75% RH chamber. […] After appropriate dilution, analyzed the samples by HPLC according to the method below:
The standard stock solution of Compound 1 was prepared by dissolving 1.18 mg Compound 1 with 25 ml mixture of acetonitrile and water (acetonitrile:water=1:1). The stock solution was serially further diluted with a dilution factor of 2 to obtain a standard calibration curve.

## NC(=O)CCC/C=C\C[C@@H]1[C@@H](/C=C/[C@@H](O)CCc2cc(Cl)sc2Cl)[C@H](O)C[C@@H]1O [Compound 1, (Z)-7-((1R,2R,3R,5S)-2-((S,E)-5-(2,5-dichlorothiophen-3-yl)-3-hydroxypent-1-en-1-yl)-3,5-dihydroxycyclopentyl)hept-5-enamide]
40° C./75% RH, 12 weeks
  Physical state on storage: became an oil
40° C./75% RH, within hours
  Physical state on storage: turns into oil
Day 1, 40° C./75% RH
  Appearance: Oil
Time 0, sample kept in −20° C. freezer
  Appearance: White
Week 1, 40° C./75% RH
  Appearance: Oil
Week 2, 40° C./75% RH
  Appearance: Oil
Week 4, 40° C./75% RH
  Appearance: Oil
Week 8, 40° C./75% RH
  Appearance: Oil
Week 12, 40° C./75% RH
  Appearance: Oil
End of the 12-week study, 40° C./75% RH, HPLC
  Potency loss: about 20%
